Source: patent US20030165585A1, “Xanthine-containing compositions for oral administration and uses related thereto” (priority 2002, published 2003)

What was measured:
Assay type in all cases: in vivo, human
subjects [1] = assay: Stimulant effect: scores in video game of skill Pilot Wing before and after consuming composition; details: five subjects, crossover over three days, Formulation I vs 180 mg caffeine vs placebo
Description: Five subjects were tested over a period of three days. […] Both prior to and after consuming the composition, each subject played a video game of skill called Pilot Wing™ made by Nintendo™.

subjects [2] = assay: Standard short-term memory test (repeating a read series of numbers backward); details: three of the five subjects; test 30 minutes after ingestion
Description: The test consisted of an examiner reading a series of numbers to the subject and the subject subsequently being asked to repeat said numbers backward. In all cases, the test was initiated 30 minutes after ingestion of the composition.

[3] = Weight loss in overweight subjects, daily administration over two weeks; details: Formulation I (ten subjects) vs 180 mg caffeine capsules (five) vs placebo (five), FIG. 1
Excerpt: Weights were averaged and weight loss was charted every three days in all groups.

Cn1c(=O)c2c(ncn2C)n(C)c1=O [caffeine]
video game scores after consuming the composition (subjects [1]): higher scores after consuming the caffeine, compared to consuming the placebo | digits repeated backwards without error (subjects [2]): could not repeat this accomplishment | weight loss compared between groups [3]: not matched
